Test results published in the supplement of paper PMC11451515.

Tests used:
Experiment in all cases: AUC of viability dose-response curve (% viability x log10 dose units); higher = less sensitive
Conditions in all cases: 48 h
SEM cells = tested on: SEM cells
Summary of the method: (§1)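 Viability of medium-adapted leukemia cells was measured by CellTiter-Glo One luminescence after 48 h at 37°C with library compounds in DMSO. Doses were 11 threefold steps from 47 μM to 0.79 nM, in 1536-well plates at 500 or 1000 cells/well. Signals were normalised per plate to DMSO and cell-free wells and fitted with a four-parameter log-logistic model on log10 dose. Area under the curve was integrated by trapezoidal rule, with curves exceeding full viability scaled and failed quality-control curves removed.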

NOMO1 = tested on: NOMO1
Summary of the method: as §1

P12-Ichikawa = tested on: P12-Ichikawa
Summary of the method: as §1

[1] = RPMI 5 mM glucose + 10% dialyzed FBS

SMILES	AUC of viability dose-response curve (SEM cells; HPLM + 10% dialyzed FBS)	AUC of viability dose-response curve (SEM cells; RPMI 5 mM glucose + 10% FBS)	AUC of viability dose-response curve (SEM cells; [1])	AUC of viability dose-response curve (NOMO1; HPLM + 10% dialyzed FBS)	AUC of viability dose-response curve (NOMO1; RPMI 5 mM glucose + 10% FBS)	AUC of viability dose-response curve (NOMO1; [1])	AUC of viability dose-response curve (P12-Ichikawa; HPLM + 10% dialyzed FBS)	AUC of viability dose-response curve (P12-Ichikawa; RPMI 5 mM glucose + 10% FBS)	AUC of viability dose-response curve (P12-Ichikawa; [1])
N[C@@H](Cc1ccc(N(CCCl)CCCl)cc1)C(=O)O	377	355	362	400	422	415	410	374	387
COc1cc([S+](C)(=O)[O-])ccc1Nc1nc2ccc(-c3ccc(NC(=O)[C@H](C)c4ccc(F)cc4)cc3)cn2n1	377	369	384	430	439	436	396	386	394
COc1c(C)c2c(c(O)c1C/C=C(\C)CCC(=O)OCCN1CCOCC1)C(=O)OC2	405	396	427	402	412	408	406	393	400
CC[C@@H](C)[C@H](NC(=O)[C@H](CC1CCCCC1)NC(=O)c1ccno1)C(=O)N1CCC2(CCc3ccccc32)CC1	382	381	449	399	385	385	418	394	388
COCCNCCCn1c(C(=O)CF)c(-c2ccc(C)cc2)c2c(N)ncnc21	438	367	410	470	417	453	456	445	448
O=C1CCc2cc(OCCCCc3nnnn3C3CCCCC3)ccc2N1	439	438	428	411	433	451	452	436	431
Cc1n[nH]c(C)c1Cc1sc2c(c1C(=O)N1C[C@H](O)CO1)c(=O)n(C)c(=O)n2CC(C)C	366	408	444	456	476	468	416	410	417
CC(C)C[C@@H](C(=O)N[C@H](C(=O)OC1CCCC1)c1ccccc1)[C@H](O)C(=O)NO	454	423	399	451	449	446	446	424	441
NCC/1=C/NC(=S)N1[C@H]2CCC3=C(F)C=C(F)C=C3C2	458	453	456	395	470	466	464	463	462
CC/C(=C(\c1ccccc1)c1ccc(OCCN(C)C)cc1)c1ccccc1	434	425	435	457	458	450	472	461	465
CCCCC(F)(F)[C@@]1(O)CC[C@H]2[C@@H](CC(=O)[C@@H]2CCCCCCC(=O)O)O1	455	459	456	446	447	411	451	444	456
CCN(CC)CCNC(=O)c1ccc2nc(-c3ccccc3)c(-c3ccc(CN4CCC(n5c(=O)[nH]c6ccccc65)CC4)cc3)nc2c1	246	221	243	354	400	399	355	380	358
COC(=O)[C@@H]1CC2=CC(=O)CC[C@]2(C)[C@@]23O[C@@H]2C[C@@]2(C)[C@@H](CC[C@@]24CCC(=O)O4)[C@H]13	444	456	421	456	467	450	458	446	451
CCCC[N+]1(C)[C@@H]2CC(OC(=O)[C@H](CO)c3ccccc3)C[C@H]1[C@@H]1O[C@@H]12 (stereo not given in full)	462	471	475	420	431	450	452	450	460
NC(=O)[C@@H](CCC(F)(F)F)N(Cc1ccc(-c2ncon2)cc1F)[S+](=O)([O-])c1ccc(Cl)cc1	430	381	385	436	413	426	430	421	403
